“And” between values parts separate entries of the source, which are not always exact repeats. Identical values can stand only once. “Also recorded” adds a separate entry of the source.
Experiments:
KCNQ3 = molecular target: T1, KCNQ3 (Rattus norvegicus, UniProt O88944); test: Whole-cell voltage clamp of CHO cells expressing KCNQ3; assay type: cell-based; conditions: 10 μM ZnPy
T1 construct: expressed in transfected cells; host or cells: CHO cells
Experimental: (§1) Cell culture and transient transfection—Chinese Hamster Ovary (CHO) cells were grown in 50/50 DMEM/F12 (Cellgro) with 10% FBS (Gibco), 100 U/ml penicillin (Cellgro), 100 μg/ml streptomycin (Cellgro) and 2 mM L-glutamine (Gibco). At 24 hours before transfection, cells were split and plated in 60 mm dishes and were transfected with Lipofectamine2000™ reagent (Invitrogen) according to the manufacturer's instruction. At 24 hours after transfection, cells were split and re-plated onto coverslips coated with poly-L-lysine (Sigma). Plasmid expressing CD4 cDNA as a marker was cotransfected with the channel cDNAs of hKCNQ1 (from Dr. Michael Sanguinetti), hKCNQ4 (from Dr. Vitya Vardanyan), rKCNQ2, rKCNQ3, and hKCNQ5 (from Drs. David McKinnon, Mark Shapiro, and Thomas Jentsch). Prior to recording, anti-CD4 Dynabeads (Dynal. Biotech. Inc.) were added into the medium to allow for identification of the transfected cells. […]
(§2) Electrophysiological Recording—Standard whole-cell recording was used. […] Current and voltage were recorded using an Axopatch-200A amplifier, filtered at 1 kHz and digitized using a DigiData 1322A with pClamp 9.2 software (Axon Instruments, Foster City, Calif.). […]
Data and Statistical Analysis—Patch-clamp data were preprocessed using Clampfit 9.2 (Axon Instruments, Foster City, Calif.) and then analyzed in Origin 7 (OriginLab, Northampton, Mass.). […]

KCNQ1 = molecular target: T2, KCNQ1 (Homo sapiens, UniProt P51787); test: Whole-cell voltage clamp of CHO cells expressing KCNQ1; assay type: cell-based; conditions: 10 μM ZnPy, extracellular
T2 construct: expressed in transfected cells; host or cells: CHO cells
Experimental: as §1, with “cells. Stable lines expressing Kv2.1, hERG, and Kv4.2 were generated by standard protocols using pcDNA3.1 and maintained at complete medium supplemented with 500 μg/ml G418.” for “cells.”
as §2

KCNQ5 = molecular target: T3, KCNQ5 (Homo sapiens, UniProt Q9NR82); test: Whole-cell voltage clamp of CHO cells expressing KCNQ5; assay type: cell-based; conditions: 10 μM ZnPy, extracellular
T3 construct: expressed in transfected cells; host or cells: CHO cells
Experimental: as §1, with “cells. Stable lines expressing Kv2.1, hERG, and Kv4.2 were generated by standard protocols using pcDNA3.1 and maintained at complete medium supplemented with 500 μg/ml G418.” for “cells.”
as §2

KCNQ2(R207W) = molecular target: T4, KCNQ2(R207W) (Rattus norvegicus, UniProt O88943, R207W); test: Whole-cell recording of KCNQ2(R207W) BFNC mutant in CHO cells; assay type: cell-based; conditions: 10 μM ZnPy
T4 construct: expressed in transfected cells; host or cells: CHO cells, transient
Experimental: FIG. 11. ZnPy effects on BFNC mutant channels expressed in CHO cells. A. whole-cell currents of KCNQ2(R207W), KCNQ2(Y284C), and KCNQ2(A306T) were recorded in the absence (left) and presence (right) of 10 μM ZnPy, Vh was −80 mV, in 10 mV voltage steps from −70 mV to +50 mV. B. a histogram plotting potentiation effects on KCNQ2 wild type (wt) and BFNC mutants (R207W, Y284C and […]) by ZnPy (filled box) and retigabine (open box) (n≧4, * p<0.001, ** p<0.05).
Mutagenesis—Starting from KCNQ cDNAs, the KCNQ2 point mutants were constructed by recombinant PCR and verified by sequencing.
Electrophysiological Recording—Standard whole-cell recording was used. Pipettes were pulled from borosilicate glass capillaries (TW150-4, World Precision Instruments, Sarasota, Fla.). When filled with the intracellular solution, the pipettes have resistances of […]. During the recording, constant perfusion of extracellular solution was maintained using a BPS perfusion system (ALA, Westbury, N.Y.). Pipette solution contained (mM): KCl 145, MgCl2 1, EGTA 5, HEPES 10, MgATP 5 (pH 7.3); extracellular solution contained (mM): NaCl 140, KCl 3, CaCl2 2, MgCl2 1.5, HEPES 10, glucose 10 (pH 7.4). Current and voltage were recorded using an Axopatch-200A amplifier, filtered at 1 kHz and digitized using a DigiData 1322A with pClamp 9.2 software (Axon Instruments, Foster City, Calif.). […]

[1] = Rat model of severe global ischemia; conditions: in vivo
KCNQ2 [2] = molecular target: T5, KCNQ2 (Rattus norvegicus, UniProt O88943); test: Whole-cell voltage clamp of CHO cells expressing KCNQ2; assay type: cell-based; design: expressed in transfected cells; host or cells: CHO cells
Experimental: Cell culture and transient transfection—Chinese Hamster Ovary (CHO) cells were grown in 50/50 DMEM/F12 (Cellgro) with 10% FBS (Gibco), 100 U/ml penicillin (Cellgro), 100 μg/ml streptomycin (Cellgro) and 2 mM L-glutamine (Gibco). At 24 hours before transfection, cells were split and plated in 60 mm dishes and were transfected with Lipofectamine2000™ reagent (Invitrogen) according to the manufacturer's instruction. At 24 hours after transfection, cells were split and re-plated onto coverslips coated with poly-L-lysine (Sigma). Plasmid expressing CD4 cDNA as a marker was cotransfected with the channel cDNAs of hKCNQ1 (from Dr. Michael Sanguinetti), hKCNQ4 (from Dr. Vitya Vardanyan), rKCNQ2, rKCNQ3, and hKCNQ5 (from Drs. David McKinnon, Mark Shapiro, and Thomas Jentsch). Prior to recording, anti-CD4 Dynabeads (Dynal. Biotech. Inc.) were added into the medium to allow for identification of the transfected cells. Stable lines expressing Kv2.1, hERG, and Kv4.2 were generated by standard protocols using pcDNA3.1 and maintained at complete medium supplemented with 500 μg/ml G418. The N-type calcium channel stable line was a kind gift from Drs. Diane Lipscombe and David Yue.
Electrophysiological Recording—Standard whole-cell recording was used. Pipettes were pulled from borosilicate glass capillaries (TW150-4, World Precision Instruments, Sarasota, Fla.). When filled with the intracellular solution, the pipettes have resistances of […]. During the recording, constant perfusion of extracellular solution was maintained using a BPS perfusion system (ALA, Westbury, N.Y.). Pipette solution contained (mM): KCl 145, MgCl2 1, EGTA 5, HEPES 10, MgATP 5 (pH 7.3); extracellular solution contained (mM): NaCl 140, KCl 3, CaCl2 2, MgCl2 1.5, HEPES 10, glucose 10 (pH 7.4). Current and voltage were recorded using an Axopatch-200A amplifier, filtered at 1 kHz and digitized using a DigiData 1322A with pClamp 9.2 software (Axon Instruments, Foster City, Calif.). Series resistance compensation was also used and set to 60-80%.
Data and Statistical Analysis—Patch-clamp data were preprocessed using Clampfit 9.2 (Axon Instruments, Foster City, Calif.) and then analyzed in Origin 7 (OriginLab, Northampton, Mass.). The activation curve was fitted by the Boltzmann equation: G=(Gmax−Gmin)/[1+exp[(V−V1/2)/S]]+Gmin, where Gmax is the maximum conductance, Gmin is the minimum conductance, V1/2 is the voltage for half of the total numbers of channels to open, and S is the slope factor. The dose response curve was fitted by the Hill equation: E=Emax/(1+(EC50/C)^P), where Emax is the maximum response, C is the drug concentration, EC50 is the drug concentration producing half of the maximum response, and P is the Hill coefficient. The deactivation trace was fitted by the standard exponential equation: I(t)=ΣIi*exp(−t/τi), where I is the current, t is the time and τ is the time constant. Data are presented as means±SE. Significance was estimated using paired two-tailed Student's t-test.

KCNQ2 [3] = molecular target: T5, KCNQ2; test: Single channel outside-out patch recording of KCNQ2; assay type: cell-based; design: expressed in transfected cells; host or cells: CHO cells
Experimental: For single channel recording procedure, outside-out patch recording was used. The pipettes had resistances of 7-15 MΩ when filled with the intracellular solution of the following composition (mM): KCl 145, MgCl2 1, EGTA 5, HEPES 10, MgATP 5 (pH 7.3). Extracellular solution contained (mM): NaCl 150, KCl 5, CaCl2 2, MgCl2 1, HEPES 10, glucose 10 (pH 7.4). Current and voltage were recorded using an Axopatch-200B amplifier, sample at 4 kHz and filtered at 200 Hz, and digitized using a DigiData 1322A with pClamp 9.2 software (Axon Instruments, Foster City, Calif.).
The open probability (Po) and single channel current (i) were calculated by fitting all-point histograms with single- or multi-Gaussian curves. The ratio of the area under the fitted ‘open’ Gaussian to the total area under the entire Gaussian was taken as Po, and the difference between the fitted “closed” and “open” peaks was taken as i, single channel conductance (γ) was calculated by the equation: γ=i/(V−V5).

S=c1ccccn1[O][Zn][O]n1ccccc1=S [ZnPy, Zinc Pyrithione]
change of V1/2 (KCNQ3): no change on V1/2 | current potentiation (KCNQ3; extracellular): did not show any current potentiation; also recorded: has no effect on KCNQ3 | effect on channel activity (KCNQ1): potentiated; also recorded: potentiates KCNQ1 | effect on channel activity (KCNQ5): became conductive upon ZnPy treatment | fold current increase (KCNQ2(R207W)): more than 3 fold | neuroprotection [1]: protection against cell loss in the selectively vulnerable zone of the CA1 region of the hippocampus | effect on membrane potential of CHO cells expressing KCNQ2 (KCNQ2 [2]; 10 μM ZnPy): significant hyperpolarization | left (hyperpolarizing) shift of V1/2 (KCNQ2 [2]; 10 μM ZnPy): 25.5±1.5 mV | effect on TEA-blocked KCNQ2 current (KCNQ2 [2]; 10 μM ZnPy extracellular in presence of 20 mM TEA): unable to reverse the TEA inhibition | potentiation on intracellular application (KCNQ2 [2]; 10 μM ZnPy in pipette solution, with or without EGTA): induced no potentiation | V1/2 on internal perfusion (KCNQ2 [2]; 10 μM ZnPy through recording pipette, 0 to 12 minutes): consistent and identical to that of KCNQ2 control | effect on channel activity (KCNQ2 [2]; 10 μM ZnPy, extracellular): potentiated | V1/2 (voltage required for half maximal activation) in presence of compound (KCNQ2 [2]; 10 μM ZnPy, control −18.9±0.6 mV): −44.4±0.9 mV | activation time constant (KCNQ2 [2]; +50 mV, with ZnPy, control 163.5±13.7): 293.1±11.2 milliseconds | Hill coefficient of dose dependent curve (KCNQ2 [2]; KCNQ2): 1.8 | EC50 (KCNQ2 [2]; KCNQ2 alone, read-out: EC50 of midpoint of activation voltage (V1/2) shift): 1500 ± 300 nM | deactivation time constant (KCNQ2 [2]; −120 mV, 10 μM ZnPy, control 14.1±0.6): 54.4±0.9 milliseconds | single channel open probability (Po) (KCNQ2 [3]; 0 mV, 10 μM ZnPy, control 0.13): 0.77±0.06 and 0.77 | fitted unitary current amplitude (KCNQ2 [3]; 0 mV, 10 μM ZnPy, control 0.51 pA): 0.52 pA | fold increase in Po (KCNQ2 [3]; 10 μM ZnPy): 5.9 fold | single channel conductance (KCNQ2 [3]; in the presence or absence of ZnPy): 6.6±0.15 pS

From US20110257146A1, “Method of Treating Kcnq Related Disorders Using Organozinc Compounds” (The johns Hopkins University, priority 2006, published 2011)
